Measurements taken from publication PMC9653409, “Generative deep learning enables the discovery of a potent and selective RIPK1 inhibitor” (Nature Communications, 2022).
Where two headings read alike, the source gives them in different places.

Key:
RIPK1 = molecular target: T1, RIPK1 (Homo sapiens, UniProt Q13546); assay: RIPK1 kinase assay, 33P-labeled ATP assay at Eurofins; type: biochemical
T1 sequence (Q13546 1-671): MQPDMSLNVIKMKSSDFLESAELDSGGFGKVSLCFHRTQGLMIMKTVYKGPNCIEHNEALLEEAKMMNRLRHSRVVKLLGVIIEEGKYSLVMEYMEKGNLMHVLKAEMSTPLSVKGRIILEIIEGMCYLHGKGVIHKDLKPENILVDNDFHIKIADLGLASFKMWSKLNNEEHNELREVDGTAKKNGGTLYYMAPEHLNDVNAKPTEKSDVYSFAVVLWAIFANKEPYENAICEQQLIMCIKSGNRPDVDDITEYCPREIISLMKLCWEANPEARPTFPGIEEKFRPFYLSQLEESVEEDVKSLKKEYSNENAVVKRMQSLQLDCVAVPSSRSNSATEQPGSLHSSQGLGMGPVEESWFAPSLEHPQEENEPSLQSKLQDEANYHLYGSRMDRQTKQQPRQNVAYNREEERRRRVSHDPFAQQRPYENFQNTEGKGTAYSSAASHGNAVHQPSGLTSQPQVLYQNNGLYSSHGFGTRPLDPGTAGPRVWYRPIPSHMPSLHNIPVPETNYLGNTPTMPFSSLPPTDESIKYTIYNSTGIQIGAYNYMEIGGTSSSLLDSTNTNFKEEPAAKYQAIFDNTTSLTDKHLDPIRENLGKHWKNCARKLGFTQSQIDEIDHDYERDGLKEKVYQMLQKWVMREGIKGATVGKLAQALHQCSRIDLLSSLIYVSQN
Description: In vitro kinase activity assays were conducted through the Kinase Profiling Services provided by Eurofins (Eurofins, France). The protocol for the RIPK1 assay is briefly described as follows (Protocols for other kinases are very similar and can be found in http://www.eurofins.com/pharmadiscovery). RIPK1 kinase was incubated with the test compound in assay buffer containing 8 mM MOPS (pH 7.0), 0.2 mM EDTA, 250 μM […], 10 mM magnesium acetate, and 10 μM [γ-33P]-ATP for 15 min at room temperature. The reaction was initiated by the addition of the Mg/ATP mixture. After incubation for 40 min at room temperature, and the reaction was stopped by the addition of 3% phosphoric acid. A 10 μL portion of the reaction mixture was then spotted onto a P30 filter mat and washed four times for 4 min in 0.425% phosphoric acid and once in methanol prior to drying and scintillation counting.

HT29-vector cells = assay: TSZ-induced necroptosis in HT29-vector cells (CCK8); type: cell-based
Description: Cell necroptosis protection assays were performed in 96-well cell culture plates. Cells were plated in each well and cultured at 37 °C overnight. […] The cell survival rate was determined using a CCK8 cell viability assay kit and CLARIOstar (v5.61). […] All experiments were performed at least two times, and each EC50 value was expressed as mean ± standard deviation (SD).
The lentiCRISPRv2 vector targeting RIPK1 (sgRNA, 5’- […]-3’) was constructed by the Azenta company. HEK 293 T cells were transfected with lentiCRISPRv2 targeting RIPK1 and empty vector using Hieff Trans^TM Liposomal Transfection Reagent (Yeasen), respectively. […] The concentrated viruses were added to HT29 cells along with 8 μg/mL of polybrene (Yeasen) to enhance transfection efficiency. The infection assay was repeated in the next day under the same conditions. Finally, HT29 cells were screened with 3 μg/mL puromycin. Western blot analysis was used to confirm the RIPK1 deletion.

pRIPK1, pRIPK3, pMLKL = assay: TNFα-induced SIRS mouse model: liver western blot; type: in vivo, C57BL/6 female mice; details: 40 mg/kg i.p.
Description: The liver in the SIRS model and the colon in the IBD model were harvested, homogenated and sonicated in RIPA lysis buffer.
The cell proteins or tissue proteins were separated in a polyacrylamide gel and transferred to a methanol-activated polyvinylidene fluoride membrane. The membrane was blocked for 2 h in Tris-buffered saline plus Tween-20 containing 5% milk and then immunoblotted sequentially with primary and secondary antibodies. Detection was performed with an ECL chemiluminescence kit (Abbkine). The antibodies used were human RIPK1 antibody (R&D, 334640, 1:1000), mouse RIPK1 antibody (Affinity, DF2642, 1:1000), human phospho-RIP (Ser166) rabbit mAb (Cell Signaling Technologies, 65746, 1:1000), mouse phospho-RIP (Ser321) rabbit mAb (Cell Signaling Technologies, 38662, 1:1000), human RIPK3 (B-2) antibody (Santa Cruz, sc-374639, 1:250), mouse RIPK3 antibody (Abcam, ab62344, 1:1000), human anti-RIP3 (phospho S227) antibody (Abcam, ab209384, 1:2000), mouse anti-RIP3 (phospho T231 + S232) antibody (Abcam, ab205421, 1:500), anti-MLKL (58–70) antibody (Sigma, M6697, 1:250), human anti-MLKL (phospho S358) antibody (Abcam, ab187091, 1:1000), mouse anti-MLKL (phospho S345) antibody (Abcam, ab196436, 1:1000), and β-actin (Proteintech, 66009-1-Ig, 1:1000).

DSS-induced IBD = DSS-induced IBD mouse model: colon H&E and S100a9 immunohistochemistry; type: in vivo, C57BL/6 female mice; details: 40 mg/kg i.p., day 7
Description: The heart, liver, spleen, lung, kidney and colon tissues were fixed directly in 4% paraformaldehyde (24 h), embedded in paraffin, and stained with H&E following standard procedures. All images were acquired using a Pannoramic MIDI scanner. The colon tissues were fixed in 4% paraformaldehyde for 24 h. The tissues were sliced to a thickness of […], deparaffinized with xylene, and rehydrated with graded ethanol. The tissue sections were then placed in a repair box filled with citric acid (pH 6.0) antigen retrieval buffer for antigen retrieval in a microwave oven followed by the quenching of endogenous peroxidase activity in 3% hydrogen peroxide. The sections were incubated overnight at 4 °C with primary antibody (S100a9, 73425, CST), which was prepared in PBS (pH 7.4) according to the manufacturer’s instructions. The sections were then washed three times with PBS, incubated for 1 h with the appropriate secondary antibodies, and staining with freshly prepared DAB color developing solution. Subsequently, the sections were counterstained with hematoxylin and mounted in non-aqueous mounting medium. All images were acquired using a Pannoramic MIDI scanner.

[1] = C57B6, mouse, in vivo

With `CC(C)C(=O)Nc1nc2cc(-c3ccc4c(c3)c(C(=O)NC(C)c3ccccc3)cn4C)ccn2n1` (stereo not shown) [RI-962] the activity at 0.001 µM (RIPK1; 1 nM) was 82.5%, the activity at 0.003 µM (RIPK1; 3 nM) was 95% and the activity at 0.01 µM (RIPK1; 10 nM) was 80.5%. It also gave an activity at 0.03 µM (RIPK1; 30 nM) of 60.5%, an activity at 0.1 µM (RIPK1; 100 nM) of 17.5% and an activity at 0.3 µM (RIPK1; 300 nM) of -2%. The activity at 1 µM (RIPK1; 1000 nM) was 11.5%, the activity at 3 µM (RIPK1; 3000 nM) was 3.5% and the activity at 10 µM (RIPK1; 10 µM, read-out: Activity (%), RIPK1(h)) was 0%. The activity at 10 µM (RIPK1; 10000 nM, read-out: Activity (%) Average) was -3.5%, the IC50 (RIPK1; 33P-labeled ATP assay, read-out: IC50) was 35 nM and the viability at 0.000169 µM (HT29-vector cells; 0.000169 μM + TSZ, read-out: Cell Viability (%) Average) was 34.3%. The viability at 0.000508 µM (HT29-vector cells; 0.000508 μM + TSZ, read-out: Cell Viability (%) Average) was 38.1%, the viability at 0.001524 µM (HT29-vector cells; 0.001524 μM + TSZ, read-out: Cell Viability (%) Average) was 41.2% and the viability at 0.004572 µM (HT29-vector cells; 0.004572 μM + TSZ, read-out: Cell Viability (%) Average) was 64.8%. It also gave a viability at 0.013717 µM (HT29-vector cells; 0.013717 μM + TSZ, read-out: Cell Viability (%) Average) of 108%, a viability at 0.041152 µM (HT29-vector cells; 0.041152 μM + TSZ, read-out: Cell Viability (%) Average) of 109% and a viability at 0.123457 µM (HT29-vector cells; 0.123457 μM + TSZ, read-out: Cell Viability (%) Average) of 110%. The viability at 0.37037 µM (HT29-vector cells; 0.370370 μM + TSZ, read-out: Cell Viability (%) Average) was 113%, the viability at 1.11111 µM (HT29-vector cells; 1.111111 μM + TSZ, read-out: Cell Viability (%) Average) was 102% and the EC50 (HT29-vector cells; HT29-vector, TSZ) was 4.2 ± 0.2 nM. The “level of pRIPK1 in liver (western blot)” value (pRIPK1, pRIPK3, pMLKL) was “substantially reduced the level of phosphorated RIPK1 (pRIPK1)”, the “infiltration by S100a9-positive cells” value (DSS-induced IBD) was “no infiltration by S100a9-positive cells was observed” and the “tissue damage in the colons (histopathology)” value (DSS-induced IBD) was “substantially decreased tissue damage”. For the same compound, the doses well tolerated [1] was “up to 250 mg/kg”.
